From US6355799B1, “Substituted benzene compounds, process for their preparation, and herbicidal and defoliant compositions containing them” (ISK Americas Incorporated, priority 1997, dated 2002)

Tests used:
Assay type in all cases: in vivo
[1] = test system: field corn (Zea mays L., var. Dekalb 535, CORN); assay: Pre-emerge test, crop safety; conditions: crop damage rating 0-100, 14 days after application
Outline: (§1)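 Compounds in acetone were track-sprayed at 187 l/ha, 15–1000 g ai/ha, onto sandy loam pots. Pre-emerge seeds were sown one day before spraying, with surface watering afterwards. Post-emerge plants were at the 2–3 leaf stage and sprayed with 0.25% v/v non-ionic surfactant. Injury was rated 0–100 at 14 days.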

[2] = test system: upland rice (Oryza sp., var. Tebonnet, RICE); assay: Pre-emerge test, crop safety; conditions: crop damage rating 0-100, 14 days after application
Outline: as §1

[3] = test system: barnyardgrass (Echinochloa crus-galli, ECHCG); assay: Post-emerge test, greenhouse herbicide activity screening; conditions: post-emerge, 14 days after application, rating scale 0-100
Outline: (§2)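 Fourteen days after spraying, crop and weed injury was graded visually from 0, no effect, to 100, every plant dead. Test substances were dissolved in acetone and applied at 15–1000 g ai/ha with a flat-fan nozzle. Application was either pre-emergence, one day after sowing, or post-emergence at the 2–3 leaf stage.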

[4] = test system: johnsongrass (Sorghum halepense, SORHA); assay: as above; conditions: post-emerge, 14 days after application, rating scale 0-100
Outline: as §2

[5] = test system: redroot pigweed (Amaranthus retroflexus, AMARE); assay: as above; conditions: post-emerge, 14 days after application
Outline: as §2

[6] = test system: green foxtail (Setaria viridis, SETVI); assay: as above; conditions: post-emerge, 14 days after application, rating scale 0-100
Outline: as §2

[7] = test system: ivyleaf morningglory (Ipomoea hederacea, IPOHE); assay: as above; conditions: post-emerge, 14 days after application, rating scale 0-100
Outline: as §2

[8] = test system: velvetleaf (Abutilon theophrasti, ABUTH); assay: as above; conditions: post-emerge, 14 days after application, rating scale 0-100
Outline: as §2

[9] = test system: large crabgrass (Digitaria sanguinalis, DIGSA); assay: as above; conditions: post-emerge, 14 days after application, rating scale 0-100
Outline: as §2

[10] = test system: sicklepod (Cassia obtusifolia, CASOB); assay: as above; conditions: post-emerge, 14 days after application, rating scale 0-100
Outline: as §2

[11] = test system: lambsquarters (Chenopodium album, CHEAL); assay: as above; conditions: post-emerge, 14 days after application, rating scale 0-100
Outline: as §2

[12] = test system: field corn (Zea mays L., var. Dekalb 535, CORN); assay: Post-emerge test, crop safety; conditions: post-emerge, 14 days after application, rating scale 0-100
Outline: as §1

[13] = test system: upland rice (Oryza sp., var. Tebonnet, RICE); assay: Post-emerge test, crop safety; conditions: post-emerge, 14 days after application, rating scale 0-100
Outline: as §1

[14] = test system: redroot pigweed (Amaranthus retroflexus, AMARE); assay: Pre-emerge test, greenhouse herbicide activity screening; conditions: phytotoxicity rating 0-100, 14 days after application
Outline: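 Herbicidal damage is scored 0 (none) to 100 (complete plant death) two weeks after a simulated field spray. Rates span 15–1000 g ai/ha, delivered in acetone at 187 l/ha. For post-emergence treatments, plants have 2–3 leaves and the spray carries 0.25% v/v non-ionic surfactant.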

[15] = test system: barnyardgrass (Echinochloa crus-galli, ECHCG); assay: as above; conditions: phytotoxicity rating 0-100, 14 days after application
Outline: as §1

[16] = test system: johnsongrass (Sorghum halepense, SORHA); assay: as above; conditions: phytotoxicity rating 0-100, 14 days after application
Outline: as §1

[17] = test system: green foxtail (Setaria viridis, SETVI); assay: as above; conditions: phytotoxicity rating 0-100, 14 days after application
Outline: as §1

[18] = test system: ivyleaf morningglory (Ipomoea hederacea, IPOHE); assay: as above; conditions: phytotoxicity rating 0-100, 14 days after application
Outline: as §1

[19] = test system: velvetleaf (Abutilon theophrasti, ABUTH); assay: as above; conditions: phytotoxicity rating 0-100, 14 days after application
Outline: as §1

[20] = test system: large crabgrass (Digitaria sanguinalis, DIGSA); assay: as above; conditions: phytotoxicity rating 0-100, 14 days after application
Outline: as §1

[21] = test system: sicklepod (Cassia obtusifolia, CASOB); assay: as above; conditions: phytotoxicity rating 0-100, 14 days after application
Outline: as §1

[22] = test system: lambsquarters (Chenopodium album, CHEAL); assay: as above; conditions: phytotoxicity rating 0-100, 14 days after application
Outline: as §1

Cn1c(C(F)(F)F)cc(=O)n(-c2ccc(OC(F)(F)F)cc2NC(=O)c2ccc3ccccc3c2)c1=O [2-203]
Pre-emerge Herbicidal Activity CORN ([1]; 63 g ai/ha): 0
Pre-emerge Herbicidal Activity CORN ([1]; 250 g ai/ha): 0
Pre-emerge Herbicidal Activity RICE ([2]; 63 g ai/ha): 10
Pre-emerge Herbicidal Activity RICE ([2]; 250 g ai/ha): 20
phytotoxicity rating ECHCG ([3]; 63 g ai/ha): 10
phytotoxicity rating ECHCG ([3]; 250 g ai/ha): 30
phytotoxicity rating SORHA ([4]; 63 g ai/ha): 10
phytotoxicity rating SORHA ([4]; 250 g ai/ha): 20
phytotoxicity rating AMARE ([5]; 63 g ai/ha, rating scale 0-100 (0 no damage, 100 complete death)): 100
phytotoxicity rating AMARE ([5]; 250 g ai/ha, rating scale 0-100): 100
phytotoxicity rating SETVI ([6]; 63 g ai/ha): 20
phytotoxicity rating SETVI ([6]; 250 g ai/ha): 30
phytotoxicity rating IPOHE ([7]; 63 g ai/ha): 60
phytotoxicity rating IPOHE ([7]; 250 g ai/ha): 95
phytotoxicity rating ABUTH ([8]; 63 g ai/ha): 100
phytotoxicity rating ABUTH ([8]; 250 g ai/ha): 100
phytotoxicity rating DIGSA ([9]; 63 g ai/ha): 10
phytotoxicity rating DIGSA ([9]; 250 g ai/ha): 30
phytotoxicity rating CASOB ([10]; 63 g ai/ha): 100
phytotoxicity rating CASOB ([10]; 250 g ai/ha): 100
phytotoxicity rating CHEAL ([11]; 63 g ai/ha): 100
phytotoxicity rating CHEAL ([11]; 250 g ai/ha): 100
phytotoxicity rating CORN (crop damage) ([12]; 63 g ai/ha): 10
phytotoxicity rating CORN (crop damage) ([12]; 250 g ai/ha): 10
phytotoxicity rating RICE (crop damage) ([13]; 63 g ai/ha): 25
phytotoxicity rating RICE (crop damage) ([13]; 250 g ai/ha): 30
Pre-emerge Herbicidal Activity AMARE ([14]; 63 g ai/ha): 70
Pre-emerge Herbicidal Activity AMARE ([14]; 250 g ai/ha): 100
Pre-emerge Herbicidal Activity ECHCG ([15]; 63 g ai/ha): 0
Pre-emerge Herbicidal Activity ECHCG ([15]; 250 g ai/ha): 80
Pre-emerge Herbicidal Activity SORHA ([16]; 63 g ai/ha): 0
Pre-emerge Herbicidal Activity SORHA ([16]; 250 g ai/ha): 40
Pre-emerge Herbicidal Activity SETVI ([17]; 63 g ai/ha): 20
Pre-emerge Herbicidal Activity SETVI ([17]; 250 g ai/ha): 70
Pre-emerge Herbicidal Activity IPOHE ([18]; 63 g ai/ha): 10
Pre-emerge Herbicidal Activity IPOHE ([18]; 250 g ai/ha): 70
Pre-emerge Herbicidal Activity ABUTH ([19]; 63 g ai/ha): 75
Pre-emerge Herbicidal Activity ABUTH ([19]; 250 g ai/ha): 100
Pre-emerge Herbicidal Activity DIGSA ([20]; 63 g ai/ha): 60
Pre-emerge Herbicidal Activity DIGSA ([20]; 250 g ai/ha): 90
Pre-emerge Herbicidal Activity CASOB ([21]; 63 g ai/ha): 30
Pre-emerge Herbicidal Activity CASOB ([21]; 250 g ai/ha): 90
Pre-emerge Herbicidal Activity CHEAL ([22]; 63 g ai/ha): 100
Pre-emerge Herbicidal Activity CHEAL ([22]; 250 g ai/ha): 100
